≈ marks a conversion by molar mass, not a printed value. Calls of active or inactive are those of the source. The rule behind the calls is not given here.
Legend:
Candida albicans [1] = experiment: Antifungal activity against fluconazole-resistant Candida albicans isolate 17 after 24 to 48 hrs by NCCLS method; type: functional, organism-based; conditions: for IC50 / IC80: Candida albicans
KB = experiment: Cytotoxicity against human KB cells at 10 ug/mL; type: functional, cell-based
Candida albicans [2] = experiment: Antifungal activity against Candida albicans ATCC 90028 after 24 to 48 hrs by NCCLS method; type: functional, organism-based
Candida albicans [3] = experiment: Antifungal activity against Candida albicans ATCC 90028 by sphingolipid reversal assay in presence of 2.5 ug/mL dihydrosphingosine; type: functional, organism-based
Candida albicans [4] = experiment: Antifungal activity against Candida albicans ATCC 90028 by sphingolipid reversal assay in presence of 1.25 ug/mL dihydrosphingosine; type: functional, organism-based
SK-MEL = experiment: Cytotoxicity against human SK-MEL cells at 10 ug/mL; type: functional, cell-based
BT-549 = experiment: Cytotoxicity against human BT549 cells at 10 ug/mL; type: functional, cell-based
Candida albicans [5] = experiment: Antifungal activity against fluconazole-resistant Candida albicans isolate 8 after 24 to 48 hrs by NCCLS method; type: functional, organism-based; conditions: for IC50 / IC80: Candida albicans
Candida albicans [6] = experiment: Antifungal activity against fluconazole-resistant Candida albicans isolate 5 after 24 to 48 hrs by NCCLS method; type: functional, organism-based; conditions: for IC50 / IC80: Candida albicans
Vero = experiment: Cytotoxicity against african green monkey Vero cells at 10 ug/mL; type: cell-based; conditions: chlorocebus sabaeus
Candida albicans [7] = experiment: Antifungal activity against fluconazole-resistant Candida albicans isolate 2 after 24 to 48 hrs by NCCLS method; type: functional, organism-based; conditions: for IC50 / IC80: Candida albicans
Candida albicans [8] = experiment: Antifungal activity against fluconazole-susceptible Candida albicans isolate 1 after 24 to 48 hrs by NCCLS method; type: functional, organism-based; conditions: for IC50 / IC80: Candida albicans
Candida albicans [9] = experiment: Antifungal activity against Candida albicans ATCC 90028 by sphingolipid reversal assay in presence of 15 ug/mL stearylamine; type: functional, organism-based
Candida albicans [10] = experiment: Antifungal activity against Candida albicans ATCC 90028 by sphingolipid reversal assay in presence of 30 ug/mL stearylamine; type: functional, organism-based
SK-OV-3 = experiment: Cytotoxicity against human SKOV3 cells at 10 ug/mL; type: functional, cell-based
Candida albicans [11] = experiment: Antifungal activity against Candida albicans ATCC 90028 by sphingolipid reversal assay in presence of 5 ug/mL stearylamine; type: functional, organism-based
Candida albicans [12] = experiment: Antifungal activity against Candida albicans ATCC 90028 by sphingolipid reversal assay in presence of 5.0 ug/mL dihydrosphingosine; type: functional, organism-based
Candida albicans [13] = experiment: Antifungal activity against fluconazole-resistant Candida albicans isolate 17 at 100 ug/mL after 24 to 48 hrs by NCCLS method; type: functional, organism-based

Row | SMILES | IC50 (Candida albicans [1]) [µg/mL] | IC80 (Candida albicans [1]) [µg/mL] | IC50 (Candida albicans [2]) [µg/mL] | MIC (Candida albicans [2]) [µg/mL] | IC50 (Candida albicans [3]) [µg/mL] | IC50 (Candida albicans [4]) [µg/mL] | Fungicidal (Candida albicans [5]) [µg/mL] | IC50 (Candida albicans [5]) [µg/mL] | IC80 (Candida albicans [5]) [µg/mL] | Fungicidal (Candida albicans [6]) [µg/mL] | IC50 (Candida albicans [6]) [µg/mL] | IC80 (Candida albicans [6]) [µg/mL] | Fungicidal (Candida albicans [7]) [µg/mL] | IC50 (Candida albicans [7]) [µg/mL] | IC80 (Candida albicans [7]) [µg/mL] | Fungicidal (Candida albicans [8]) [µg/mL] | IC50 (Candida albicans [9]) [µg/mL] | IC50 (Candida albicans [10]) [µg/mL] | IC50 (Candida albicans [11]) [µg/mL] | IC50 (Candida albicans [12]) [µg/mL] | other results
1 | CCCCCCCCCCCCC#CCCCCC(=O)O [6-NONADECYNOIC ACID] | 0.45 (≈ 1.53 µM) | 0.6 (≈ 2.04 µM) | 0.33 (≈ 1.12 µM) | 0.52 (≈ 1.77 µM) | 2 | 1 | 0.8 | 0.5 (≈ 1.7 µM) | 0.65 (≈ 2.21 µM) | 0.8 | 0.45 (≈ 1.53 µM) | 0.6 (≈ 2.04 µM) | 0.35 | 0.25 (≈ 0.849 µM) | 0.3 (≈ 1.02 µM) | 0.45 | 15 | 35 | 5 | 4.5 | Fungicidal (Candida albicans [1]): 0.7 µg/mL; Activity (KB): inactive; Activity (SK-MEL): inactive; Activity (BT-549): inactive; Activity (Vero): Not Active; IC50 (Candida albicans [8]): 0.25 µg/mL (≈ 0.849 µM); IC80 (Candida albicans [8]): 0.35 µg/mL (≈ 1.19 µM); Activity (SK-OV-3): inactive
2 | CCCCCCCCCCCC#CCCCCC(=O)OC | – | – | – | – | – | – | – | – | – | – | – | – | – | – | – | – | – | – | – | – | Activity (Candida albicans [2]): inactive
3 | Nc1nc(=O)[nH]cc1F [FLUCYTOSINE] | – | – | 0.47 (≈ 3.64 µM) | 1.04 (≈ 8.06 µM) | 0.15 | 0.2 | – | – | – | – | – | – | – | – | – | – | 0.2 | 0.25 | 0.25 | 0.1 | –
4 | CCCCCCCCCCCC#CCCCCC(=O)O [6-OCTADECYNOIC ACID] | 0.65 (≈ 2.32 µM) | 1 (≈ 3.57 µM) | 0.38 (≈ 1.35 µM) | 1.04 (≈ 3.71 µM) | 2 | 0.7 | 1.5 | 0.9 (≈ 3.21 µM) | 1 (≈ 3.57 µM) | 2 | 0.7 (≈ 2.5 µM) | 1 (≈ 3.57 µM) | 0.75 | 0.5 (≈ 1.78 µM) | 0.65 (≈ 2.32 µM) | 0.7 | 15 | 30 | 3.5 | 4.5 | Fungicidal (Candida albicans [1]): 1.5 µg/mL; Activity (KB): inactive; Activity (SK-MEL): inactive; Activity (BT-549): inactive; Activity (Vero): Not Active; IC50 (Candida albicans [8]): 0.45 µg/mL (≈ 1.6 µM); IC80 (Candida albicans [8]): 0.6 µg/mL (≈ 2.14 µM); Activity (SK-OV-3): inactive
5 | OC(Cn1cncn1)(Cn1cncn1)c1ccc(F)cc1F [FLUCONAZOLE] | 40 (≈ 131 µM) | 95 (≈ 310 µM) | – | 0.29 (≈ 0.947 µM) | 0.5 | 0.3 | 25 | 15 (≈ 49 µM) | 20 (≈ 65.3 µM) | 10 | 7.5 (≈ 24.5 µM) | 10 (≈ 32.7 µM) | 10 | 1 (≈ 3.27 µM) | 5 (≈ 16.3 µM) | 2 | 0.8 | 0.75 | 0.65 | 0.7 | Activity (Candida albicans [13]): inactive; IC80 (Candida albicans [8]): 0.2 µg/mL (≈ 0.653 µM)
6 | C[C@@H]1[C@H](O)[C@@H](C)/C=C/C=C/C=C/C=C/C=C/C=C/C=C/[C@H](O[C@@H]2O[C@H](C)[C@@H](O)[C@H](N)[C@@H]2O)C[C@@H]2O[C@](O)(C[C@@H](O)C[C@@H](O)[C@H](O)CC[C@@H](O)C[C@@H](O)CC(=O)O[C@H]1C)C[C@H](O)[C@H]2C(=O)O [AMPHOTERICIN B] | – | – | 0.23 (≈ 0.249 µM) | 0.52 (≈ 0.563 µM) | – | – | – | – | – | – | – | – | – | – | – | – | 0.4 | 0.65 | – | – | –
7 | CCCCCCCCCCCCC#CCCCCC(=O)OC | – | – | – | – | – | – | – | – | – | – | – | – | – | – | – | – | – | – | – | – | Activity (Candida albicans [2]): inactive
